Reference: patent US20250011364A1, “TUMOR TISSUE-PENETRATING PEPTIDE, SPECIFICALLY BINDING TO NEUROPILIN 1, FOR DRUG DELIVERY TO TUMOR, AND USE THEREOF” (CELLICON LAB INC., priority 2022, published 2025)

How the values were obtained:
AsPC-1 cells = assay: MTT assay: improvement of anticancer efficacy of doxorubicin; format: cell-based; conditions: 48 hours, compared to the group treated with only doxorubicin (FIG. 1)
Protocol: In order to examine the function of the present invention as a tumor tissue-penetrating peptide, the effect of the present invention on improving the anticancer efficacy of doxorubicin was evaluated. Specifically, the effect of a tumor tissue-penetrating peptide consisting of any one amino acid sequence selected from SEQ ID NO: 5 to SEQ ID NO: 8 of the present invention and SEQ ID NO: 1 to SEQ ID NO: 4, derivatives thereof, on improving the anticancer efficacy of doxorubicin was evaluated.
Specifically, in order to evaluate the effect of improving anticancer efficacy, AsPC-1 cells were used to perform the MTT assay, and cell viability was analyzed and compared (FIG. 1).
Pancreatic cancer cells (AsPC-1) were cultured in 96-well plates at 2×10^5 cells/ml for 24 hours, then treated with samples at various concentrations, and cultured for another 48 hours. […] After 4 hours, the MTT solution was removed, DMSO was added to each well to dissolve formazan at 37° C. for 30 minutes, and then the absorbance was measured at 570 nm using a microplate reader (Molecular Devices Spectra MAX, Sunnyvale, CA, USA). In all experiments, the results were statistically processed by taking the average value for three wells for each concentration, and expressed as a relative viability (%) compared to that in the group treated with no sample.

AsPC-1 xenograft [1] = assay: Tumor tissue penetration of doxorubicin, confocal microscopy of tumor slides; format: in vivo, mice; conditions: peptide 5 μM/kg iv, doxorubicin 10 mg/kg iv 10 minutes later, tumor extracted 24 hours later; vs doxorubicin only and doxorubicin + iRGD (FIG. 4)
Protocol: In order to examine the effect of the peptide of SEQ ID NO: 8 of the present invention on improving the tumor tissue-penetrating ability of a physiologically active substance, tumor-induced AsPC-1 xenograft mice were treated with only doxorubicin, doxorubicin and iRGD as a positive control, or with tumor tissue-penetrating peptide, and the effect was compared.
Specifically, iRGD or tumor tissue-penetrating peptide (5 μM/kg) was injected intravenously (iv) into AsPC-1 xenograft mice, doxorubicin (Dox; 10 mg/kg) was injected intravenously 10 minutes later, and then the tumor was extracted 24 hours later to construct paraffin slides. The slides were stained with anti-CD31-FITC (vascular endothelial cell marker), and Dox (red)/CD31 (FITC) was analyzed using a confocal microscope.

AsPC-1 xenograft [2] = assay: Tumor tissue penetration of FITC-albumin, confocal microscopy; format: in vivo, mice; conditions: FITC-albumin iv in conjugation/combination with peptide vs singly, tumor extracted 1, 3 and 24 hours later (FIG. 5)
Protocol: In order to examine the effect of the peptide of SEQ ID NO: 8 of the present invention on improving the tumor tissue-penetrating ability of physiologically active substances, FITC-albumin was injected intravenously (iv) singly or in conjugation/combination with the tumor tissue-penetrating peptide (five minutes) into tumor-induced AsPC-1 xenograft mice, the tumor was extracted 1, 3, and 24 hours later, and analysis was performed using a confocal microscope (albumin molecular weight: about 70 kDa).

NRP-1 = NRP-1 (Homo sapiens, UniProt O14786); assay: Competitive ELISA assay, inhibition of VEGF 165 binding to NRP-1; conditions: NRP-1 treated with peptide and VEGF, competitive ELISA (FIG. 6)
Description: Therefore, the tumor tissue-penetrating peptide is more likely to bind to NRP-1 competitively, and thus can interfere with neovascularization, and this means that the tumor tissue-penetrating peptide can suppress tumor growth (FIG. 6).

Chain of NRP-1 (O14786 22-923): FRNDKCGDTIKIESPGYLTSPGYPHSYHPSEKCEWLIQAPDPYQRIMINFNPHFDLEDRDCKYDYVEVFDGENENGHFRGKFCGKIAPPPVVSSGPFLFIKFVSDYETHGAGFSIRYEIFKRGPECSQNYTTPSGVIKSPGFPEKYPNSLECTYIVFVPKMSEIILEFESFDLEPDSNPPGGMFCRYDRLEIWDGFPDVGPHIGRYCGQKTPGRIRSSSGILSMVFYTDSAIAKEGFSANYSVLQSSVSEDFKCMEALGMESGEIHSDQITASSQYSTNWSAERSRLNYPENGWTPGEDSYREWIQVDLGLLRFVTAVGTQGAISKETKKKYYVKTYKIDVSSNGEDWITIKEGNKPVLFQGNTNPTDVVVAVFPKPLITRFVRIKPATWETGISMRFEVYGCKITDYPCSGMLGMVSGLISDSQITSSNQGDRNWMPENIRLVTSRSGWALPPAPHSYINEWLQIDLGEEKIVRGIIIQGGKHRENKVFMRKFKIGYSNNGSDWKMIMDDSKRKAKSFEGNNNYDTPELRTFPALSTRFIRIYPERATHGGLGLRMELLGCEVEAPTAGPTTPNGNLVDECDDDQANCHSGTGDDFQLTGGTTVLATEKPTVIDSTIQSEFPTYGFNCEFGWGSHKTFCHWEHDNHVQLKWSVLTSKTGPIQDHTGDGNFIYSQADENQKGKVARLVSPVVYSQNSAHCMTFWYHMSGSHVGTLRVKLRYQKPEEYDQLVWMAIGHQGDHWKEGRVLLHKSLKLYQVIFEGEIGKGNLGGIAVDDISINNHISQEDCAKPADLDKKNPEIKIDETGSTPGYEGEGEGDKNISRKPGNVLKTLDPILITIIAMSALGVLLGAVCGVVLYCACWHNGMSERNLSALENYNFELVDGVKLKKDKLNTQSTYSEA

H2N-[Arg-Lys-Leu-Phe-Arg-Lys-Ile-Leu-Lys-Tyr-Leu-Arg]-CO2H (RKLFRKILKYLR) [SEQ ID NO: 8, tumor tissue-penetrating peptide]
effect of improving anticancer efficacy of doxorubicin (cell viability) (AsPC-1 cells): most effective
tumor tissue-penetrating ability of doxorubicin (AsPC-1 xenograft [1]): significantly superior
tumor-penetrating ability of albumin (AsPC-1 xenograft [2]): increased
NRP-1 binding of VEGF165 (NRP-1): decreases
